This passage reports IC50 results from US9505728B2, “Triazolone compounds and uses thereof” (INCEPTION 2, INC., priority 2012, dated 2016).

For the assay, the target named is T1, Human PPARα (Homo sapiens, UniProt Q07869).
T1 construct: host or cells: proprietary non-human mammalian cells
T1 sequence (Q07869 1-468): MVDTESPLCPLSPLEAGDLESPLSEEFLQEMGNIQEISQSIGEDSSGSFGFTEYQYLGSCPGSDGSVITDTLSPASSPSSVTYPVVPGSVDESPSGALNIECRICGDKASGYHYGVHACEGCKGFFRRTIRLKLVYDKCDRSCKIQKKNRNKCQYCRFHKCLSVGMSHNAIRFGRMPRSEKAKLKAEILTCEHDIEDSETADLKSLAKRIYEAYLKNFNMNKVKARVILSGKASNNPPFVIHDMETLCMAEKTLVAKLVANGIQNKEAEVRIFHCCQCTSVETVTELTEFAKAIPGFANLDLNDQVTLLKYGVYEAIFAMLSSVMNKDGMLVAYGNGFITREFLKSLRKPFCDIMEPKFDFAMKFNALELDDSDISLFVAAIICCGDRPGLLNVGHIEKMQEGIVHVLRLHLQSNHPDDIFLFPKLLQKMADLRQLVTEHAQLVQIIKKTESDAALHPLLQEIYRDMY
Description: Human PPARα Reporter Assay (luciferase). The settings on record: human PPARα reporter cells, overnight incubation, antagonism; read-out: Luciferase IC50. Format: cell-based. In a few lines:
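Non-human mammalian cells constitutively expressing human PPARα with a PPARα-responsive luciferase reporter were dosed with compounds right after plating. After overnight incubation, media removed and detection reagent added; luminescence taken as proportional to PPARα activation, agonist or antagonist mode.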
What is called IC50 is the midpoint of a concentration-inhibition curve. Regarding `CCn1c(CCCc2ccc(-c3cccc(NC(=O)Cc4ccccc4)n3)cc2)nn(Cc2ccc(C(C)(C)C)cc2)c1=O` [Example 101, N-(6-{4-[3-(1-{[4-(tert-Butyl)phenyl]methyl}-4-ethyl-5-oxo(1,2,4-triazolin-3-yl))propyl]phenyl}(2-pyridyl))-2-phenylacetamide], the IC50 is 0.402 µM.
The figure for `CCn1c(CCCc2ccc(-c3cccc(NC(=O)C4CC4)n3)cc2)nn(Cc2ccc(C(C)(C)C)cc2)c1=O` [Example 102, N-(6-{4-[3-(1-{[4-(tert-Butyl)phenyl]methyl}-4-ethyl-5-oxo(1,2,4-triazolin-3-yl))propyl]phenyl}(2-pyridyl))cyclopropylcarboxamide] is 0.695 µM; for `CCC(=O)NS(=O)(=O)c1cccc(-c2ccc(CCCc3nn(Cc4ccc(C(C)(C)C)cc4)c(=O)n3CC)cc2)c1` [Example 103, N-((4′-(3-(1-(4-(tert-Butyl)benzyl)-4-ethyl-5-oxo-4,5-dihydro-1H-1,2,4-triazol-3-yl)propyl)-[1,1′-biphenyl]-3-yl)sulfonyl)propionamide] it is 0.436 µM; for `CCn1c(CCCc2ccc(-c3ccc(CS(=O)(=O)NCc4ccccc4)cc3)cc2)nn(Cc2ccc(C(C)(C)C)cc2)c1=O` [Example 104, N-Benzyl-1-(4′-(3-(1-(4-(tert-butyl)benzyl)-4-ethyl-5-oxo-4,5-dihydro-1H-1,2,4-triazol-3-yl)propyl)-[1,1′-biphenyl]-4-yl)methanesulfonamide] it is 0.591 µM.
Regarding `CCn1c(CCCc2ccc(-c3cccc(CS(=O)(=O)NCc4ccccc4)c3)cc2)nn(Cc2ccc(C(C)(C)C)cc2)c1=O` [Example 105, N-Benzyl-1-(4′-(3-(1-(4-(tert-butyl)benzyl)-4-ethyl-5-oxo-4,5-dihydro-1H-1,2,4-triazol-3-yl)propyl)-[1,1′-biphenyl]-3-yl)methanesulfonamide], the IC50 was 0.985 µM.
For `COc1ccc(-c2ccc(CCCc3nn(Cc4ccc(C(C)(C)C)cc4)c(=O)n3C)cc2)cc1CC(=O)O` [Example 106, 2-(4′-(3-(1-(4-(tert-Butyl)benzyl)-4-methyl-5-oxo-4,5-dihydro-1H-1,2,4-triazol-3-yl)propyl)-4-methoxy-[1,1′-biphenyl]-3-yl)acetic acid], the IC50 came out at 0.026 µM.
The figure for `CCn1c(CCCc2ccc(-c3cccc(NS(=O)(=O)N(C)C)c3)cc2)nn(Cc2ccc(C(C)(C)C)cc2)c1=O` [Example 107, 3-{3-[4-(3-{[(Dimethylamino)sulfonyl]amino}phenyl)phenyl]propyl}-1-{[4-(tert-butyl)phenyl]methyl}-4-ethyl-1,2,4-triazolin-5-one] is 0.683 µM.
In the case of `CCn1c(CCCc2ccc(-c3ncc(NS(=O)(=O)c4ccccc4)cn3)cc2)nn(Cc2ccc(C(C)(C)C)cc2)c1=O` [Example 108, N-(2-(4-(3-(1-(4-(tert-Butyl)benzyl)-4-ethyl-5-oxo-4,5-dihydro-1H-1,2,4-triazol-3-yl)propyl)phenyl)pyrimidin-5-yl)benzenesulfonamide] it was 0.165 µM; in that of `CCn1c(CCCc2ccc(-c3cncc(N)c3)cc2)nn(Cc2ccc(C(C)(C)C)cc2)c1=O` [Example 109, 3-(3-(4-(5-Aminopyridin-3-yl)phenyl)propyl)-1-(4-(tert-butyl)benzyl)-4-ethyl-1H-1,2,4-triazol-5(4H)-one], 0.59 µM.
In the case of `CCn1c(CCCc2ccc(-c3ccc(OC)c(N(C)S(=O)(=O)c4ccccc4)n3)cc2)nn(Cc2ccc(C(C)(C)C)cc2)c1=O` [Example 110, 1-{[4-(tert-Butyl)phenyl]methyl}-4-ethyl-3-[3-(4-{5-methoxy-6-[N-methyl(phenylsulfonyl)amino](2-pyridyl)}phenyl)propyl]-1,2,4-triazolin-5-one], the IC50 came out at 0.534 µM.
The figure for `CCn1c(CCCc2ccc(-c3cc(OC)c(N)cn3)cc2)nn(Cc2ccc(C(C)(C)C)cc2)c1=O` [Example 111, 3-{3-[4-(5-Amino-4-methoxy(2-pyridyl))phenyl]propyl}-1-{[4-(tert-butyl)phenyl]methyl}-4-ethyl-1,2,4-triazolin-5-one] is 0.641 µM; for `CCn1c(CCCc2ccc(-c3cc(OC)c(NS(=O)(=O)c4ccccc4)cn3)cc2)nn(Cc2ccc(C(C)(C)C)cc2)c1=O` [Example 112, 1-{[4-(tert-Butyl)phenyl]methyl}-4-ethyl-3-[3-(4-{4-methoxy-5-[(phenylsulfonyl)amino](2-pyridyl)}phenyl)propyl]-1,2,4-triazolin-5-one] it is 0.816 µM.
Regarding `CCn1c(CCCc2ccc(-c3ccc(OC)c(NS(=O)(=O)c4ccc(Cl)nc4)n3)cc2)nn(Cc2ccc(C(C)(C)C)cc2)c1=O` [Example 113, 1-{[4-(tert-Butyl)phenyl]methyl}-3-{3-[4-(6-{[(6-chloro(3-pyridyl))sulfonyl]amino}-5-methoxy(2-pyridyl))phenyl]propyl}-4-ethyl-1,2,4-triazolin-5-one], the IC50 turned out to be 0.008 µM.
The figure for `CCn1c(CCCc2ccc(-c3ccc(OC)c(NS(=O)(=O)c4ccc(OC)nc4)n3)cc2)nn(Cc2ccc(C(C)(C)C)cc2)c1=O` [Example 114, 1-{[4-(tert-Butyl)phenyl]methyl}-4-ethyl-3-{3-[4-(5-methoxy-6-{[(6-methoxy(3-pyridyl))sulfonyl]amino}(2-pyridyl))phenyl]propyl}-1,2,4-triazolin-5-one] is 0.007 µM.
`CCn1c(CCCc2ccc(-c3cccc(CC(=O)O)c3)cc2)nn(Cc2ccc(C(C)(C)C)c(C)c2)c1=O` [Example 115, 2-(4′-(3-(1-(3-Methyl-4-(tert-butyl)benzyl)-4-ethyl-5-oxo-4,5-dihydro-1H-1,2,4-triazol-3-yl)propyl)-[1,1′-biphenyl]-3-yl) acetic acid]: the IC50 was determined as 0.116 µM.
The figure for `CCC(=O)NS(=O)(=O)Cc1cccc(-c2ccc(CCCc3nn(Cc4ccc(C(C)(C)C)cc4)c(=O)n3CC)cc2)c1` [Example 116, N-(((4′-(3-(1-(4-(tert-Butyl)benzyl)-4-ethyl-5-oxo-4,5-dihydro-1H-1,2,4-triazol-3-yl)propyl)-[1,1′-biphenyl]-3-yl)methyl)sulfonyl)propionamide] is 0.987 µM.
The figure for `CCn1c(CCCc2ccc(-c3cncc(NS(=O)(=O)c4ccccc4)c3)cc2)nn(Cc2ccc(C(C)(C)C)cc2)c1=O` [Example 117, N-(5-(4-(3-(1-(4-(tert-Butyl)benzyl)-4-ethyl-5-oxo-4,5-dihydro-1H-1,2,4-triazol-3-yl)propyl)phenyl)pyridin-3-yl)benzenesulfonamide] is 0.799 µM; for `CCn1c(CCCc2ccc(-c3cnc(NS(=O)(=O)c4ccccc4)cn3)cc2)nn(Cc2ccc(C(C)(C)C)cc2)c1=O` [Example 118, N-(5-(4-(3-(1-(4-(tert-Butyl)benzyl)-4-ethyl-5-oxo-4,5-dihydro-1H-1,2,4-triazol-3-yl)propyl)phenyl)pyrazin-2-yl)benzenesulfonamide] it is 0.446 µM; for `CCn1c(CCCc2ccc(-c3cnc(NS(=O)(=O)Cc4ccccc4)cn3)cc2)nn(Cc2ccc(C(C)(C)C)cc2)c1=O` [Example 119, N-(5-(4-(3-(1-(4-(tert-Butyl)benzyl)-4-ethyl-5-oxo-4,5-dihydro-1H-1,2,4-triazol-3-yl)propyl)phenyl)pyrazin-2-yl)-1-phenylmethanesulfonamide] it is 0.941 µM.
In the case of `CCOc1ccc(-c2ccc(CCCc3nn(Cc4ccc(C(C)(C)C)cc4)c(=O)n3CC)cc2)cc1C1(C#N)CC1` [Example 120, 1-(4′-(3-(1-(4-(tert-Butyl)benzyl)-4-ethyl-5-oxo-4,5-dihydro-1H-1,2,4-triazol-3-yl)propyl)-4-ethoxy-[1,1′-biphenyl]-3-yl)cyclopropanecarbonitrile] it was 0.604 µM; in that of `CCn1c(CCCc2ccc(-c3ccc(OC(F)F)c(C(=O)O)c3)cc2)nn(Cc2ccc(C(C)(C)C)cc2)c1=O` [Example 121, 4′-(3-(1-(4-(tert-Butyl)benzyl)-4-ethyl-5-oxo-4,5-dihydro-1H-1,2,4-triazol-3-yl)propyl)-4-(difluoromethoxy)-[1,1′-biphenyl]-3-carboxylic acid], 0.039 µM.
As for `CCOc1ccc(-c2ccc(CCCc3nn(Cc4ccc(C(C)(C)C)cc4)c(=O)n3CC)cc2)cc1C1(C(=O)O)CC1` [Example 122, 1-(4′-(3-(1-(4-(tert-Butyl)benzyl)-4-ethyl-5-oxo-4,5-dihydro-1H-1,2,4-triazol-3-yl)propyl)-4-ethoxy-[1,1′-biphenyl]-3-yl)cyclopropanecarboxylic acid], the IC50 was determined as 0.188 µM.
Turning to `CCn1c(CCCc2ccc(-c3ccc(OC)c(S(=O)(=O)Nc4ccccn4)c3)cc2)nn(Cc2ccc(C(C)(C)C)cc2)c1=O` [Example 123, 4′-(3-(1-(4-(tert-Butyl)benzyl)-4-ethyl-5-oxo-4,5-dihydro-1H-1,2,4-triazol-3-yl)propyl)-4-methoxy-N-(pyridin-2-yl)-[1,1′-biphenyl]-3-sulfonamide], the IC50 stood at 0.186 µM.
In the case of `CCn1c(CCCc2ccc(-c3ccc(NS(=O)(=O)c4ccccc4)c(C)n3)cc2)nn(Cc2ccc(C(C)(C)C)cc2)c1=O` [Example 124, 1-{[4-(tert-Butyl)phenyl]methyl}-4-ethyl-3-[3-(4-{6-methyl-5-[(phenylsulfonyl)amino](2-pyridyl)}phenyl)propyl]-1,2,4-triazolin-5-one] it was 0.29 µM.
